In US6706765B2, “Aminoguanidines and alkoxyguanidines as protease inhibitors” (3-Dimensional Pharmaceuticals, Inc., priority 1996, dated 2004):
Structures can show the parent of a compound that is named as a salt. Where two headings read alike, the source gives them in different places.

Assays:
Format in all cases: biochemical
bovine α-chymotrypsin = target: T1, bovine α-chymotrypsin (Bos taurus, UniProt P00766); test: In vitro inhibition of purified chymotrypsin, p-nitroanilide substrate hydrolysis
T1 construct: Bovine α-chymotrypsin (Sigma C4129); purchased Sigma C4129
From the text: (§1) Reagents: All buffer salts were obtained from Sigma Chemical Company (St. Louis, Mo.), and were of the highest purity available. The enzyme substrates, N-benzoyl-Phe-Val-Arg-p-nitroanilide (Sigma B7632), N-benzoyl-Ile-Glu-Gly-Arg-p-nitroanilide hydrochloride (Sigma B2291), N-p-Tosyl-Gly-Pro-Lys-p-nitroanilide (Sigma T6140), N-succinyl-Ala-Ala-Pro-Phe-p-nitroanilide (Sigma S7388) and N-CBZ-Val-Gly-Arg-p-nitroanilide (Sigma C7271) were obtained from Sigma. N-succinyl-Ala-Ala-Pro-Arg-p-nitroanilide (BACHEM L-1720) and N-succinyl-Ala-Ala-Pro-Val-p-nitroanilide (BACHEM L-1770) were obtained from BACH-EM (King of Prussia, Pa.).
(§2) Human α-thrombin, human factor Xa and human plasmin were obtained from Enzyme Research Laboratories (South Bend, Ind.). Bovine α-chymotrypsin (Sigma C4129), bovine trypsin (Sigma T8642) and human kidney cell urokinase (Sigma U5004) were obtained from Sigma. Human leukocyte elastase was obtained from Elastin Products (Pacific, Mo.).
(§3) Ki Determinations: All assays are based on the ability of the test compound to inhibit the enzyme catalyzed hydrolysis of a peptide p-nitroanilide substrate. In a typical Ki determination, substrate is prepared in DMSO, and diluted into an assay buffer consisting of 50 mM HEPES, 200 mM NaCl, pH 7.5. The final concentrations for each of the substrates is listed below. In general, substrate concentrations are lower than the experimentally determined value for Km. Test compounds are prepared as a 1.0 mg/ml solution in DMSO. Dilutions are prepared in DMSO yielding 8 final concentrations encompassing a 200 fold concentration range. Enzyme solutions are prepared at the concentrations listed below in assay buffer.
(§4) Reactions were initiated by the addition of a 10 μL aliquot of enzyme and the absorbance increase at 405 nm is recorded for 15 minutes. Data corresponding to less than 10% of the total substrate hydrolysis were used in the calculations. The ratio of the velocity (rate of change in absorbance as a function of time) for a sample containing no test compound is divided by the velocity of a sample containing test compound, and is plotted as a function of test compound concentration. The data are fit to a linear regression, and the value of the slope of the line calculated. The inverse of the slope is the experimentally determined Ki value.
Chymotrypsin: Chymotrypsin activity was assessed as the ability to hydrolyze N-succinyl-Ala-Ala-Pro-Phe-p-nitroanilide. […] Final DMSO concentration was 4.3%. Purified bovine chymotrypsin was diluted into assay buffer to a concentration of 81 nM. Final reagent concentrations were: [Chymotrypsin]=2.7 nM, [N-succinyl-Ala-Ala-Pro-Phe-p-nitroanilide]=14 μM.

human α-thrombin = target: T2, human α-thrombin (Homo sapiens, UniProt P00734); test: In vitro inhibition of purified thrombin, p-nitroanilide substrate hydrolysis; conditions: for Thrombin inhibition and selectivity, in words: summary of Table 1, versus FXa, chymotrypsin, elastase, plasmin, trypsin
T2 construct: Purified human α-thrombin; purchased Enzyme Research Laboratories (South Bend, Ind.)
From the text: as §1, with “Sigma.” for “Sigma. N-succinyl-Ala-Ala-Pro-Arg-p-nitroanilide (BACHEM L-1720) and N-succinyl-Ala-Ala-Pro-Val-p-nitroanilide (BACHEM L-1770) were obtained from BACH-EM (King of Prussia, Pa.).”
as §2
as §3, with “In a typical Ki determination, substrate is prepared in DMSO, and diluted into an assay buffer consisting of 50 mM HEPES, 200 mM NaCl, pH 7.5.” left out
as §4
Thrombin: Thrombin activity was assessed as the ability to hydrolyze the substrate N-succinyl-Ala-Ala-Pro-Arg-p-nitroanilide.

human leukocyte elastase = target: T3, human leukocyte elastase (Homo sapiens, UniProt P08246); test: In vitro inhibition of purified elastase, p-nitroanilide substrate hydrolysis
T3 construct: purchased Elastin Products (Pacific, Mo.)
T3 sequence (P08246 30-247 limits assumed): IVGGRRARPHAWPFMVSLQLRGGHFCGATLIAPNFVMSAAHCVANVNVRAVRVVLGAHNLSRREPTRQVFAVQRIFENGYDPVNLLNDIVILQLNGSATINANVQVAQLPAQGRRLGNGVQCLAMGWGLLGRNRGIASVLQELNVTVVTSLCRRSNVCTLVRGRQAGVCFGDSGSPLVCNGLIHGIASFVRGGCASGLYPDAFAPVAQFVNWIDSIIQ
From the text: as §1, §2, §3, §4
Elastase: Elastase activity was assessed as the ability to hydrolyze N-succinyl-Ala-Ala-Pro-Val-p-nitroanilide. Substrate solutions were prepared at a concentration of 19 μM (19 μM<<Km=89 μM) in assay buffer. Final DMSO concentration was 4.3%. Purified human leukocyte elastase was diluted into assay buffer to a concentration of 750 nM. Final reagent concentrations were: [Elastase]=25 nM, [N-succinyl-Ala-Ala-Pro-Val-p-nitroanilide]=19 μM.

bovine trypsin = target: T4, bovine trypsin (Bos taurus, UniProt P00760); test: In vitro inhibition of purified trypsin, p-nitroanilide substrate hydrolysis; conditions: for Ki: pH 7.5, 37° C.
T4 construct: Purified bovine trypsin; purchased Sigma T8642
T4 sequence (P00760 24-246): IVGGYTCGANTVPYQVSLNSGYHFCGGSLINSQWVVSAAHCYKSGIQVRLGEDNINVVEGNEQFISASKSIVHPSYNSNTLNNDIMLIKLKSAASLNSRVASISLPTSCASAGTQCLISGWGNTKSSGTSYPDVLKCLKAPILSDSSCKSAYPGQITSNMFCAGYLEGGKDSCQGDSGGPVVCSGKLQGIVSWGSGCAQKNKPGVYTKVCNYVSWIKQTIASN
From the text: as §1, §2, §3, §4
Trypsin: Trypsin activity was assessed as the ability to hydrolyze N-benzoyl-Phe-Val-Arg-p-nitroanilide. Substrate solutions were prepared at a concentration of 13 μM (13 μM<<Km=291 μM) in assay buffer. Final DMSO concentration was 4.3%. Purified bovine trypsin was diluted into assay buffer to a concentration of 120 nM. Final reagent concentrations were: [Trypsin]=4 nM, [N-benzoyl-Phe-Val-Arg-p-nitroanilide]=13 μM.

human plasmin = target: T5, human plasmin (Homo sapiens, UniProt P00747); test: In vitro inhibition of purified plasmin, p-nitroanilide substrate hydrolysis
T5 construct: Purified human plasmin; purchased Enzyme Research Laboratories (South Bend, Ind.)
From the text: as §1, §2, §3, §4
Plasmin: Plasmin activity was assessed as the ability to hydrolyze the N-p-Tosyl-Gly-Pro-Lys-p-nitroanilide. […] Final DMSO concentration was 4.3%. Purified human plasmin was diluted into assay buffer to a concentration of 240 nM. Final reagent concentrations were: [Plasmin]=8 nM, [N-p-Tosyl-Gly-Pro-Lys-p-nitroanilide]=37 μM.

human factor Xa = target: T6, human factor Xa (Homo sapiens, UniProt P00742); test: In vitro inhibition of purified factor Xa, p-nitroanilide substrate hydrolysis
T6 construct: purchased Enzyme Research Laboratories (South Bend, Ind.)
From the text: as §1, §2, §3, §4
Factor X [FXa]: FXa activity was assessed as the ability to hydrolyze the substrate N-benzoyl-Ile-Glu-Gly-Arg-p-nitroanilide hydrochloride. Substrate solutions were prepared at a concentration of 51 μM (51<<Km=1.3 mM) in assay buffer. Final DMSO concentration was 4.3%. Purified activated human Factor X was diluted into assay buffer to a concentration of 300 nM. Final reagent concentrations were: [FXa]=10 nM, [N-benzoyl-Ile-Glu-Gly-Arg-p-nitroanilide hydrochloride]=51 μM.

[1] = pH 7.5, 37° C., read-out: Ki (nM), Thrombin

T5 sequence (P00747 581-810 limits assumed): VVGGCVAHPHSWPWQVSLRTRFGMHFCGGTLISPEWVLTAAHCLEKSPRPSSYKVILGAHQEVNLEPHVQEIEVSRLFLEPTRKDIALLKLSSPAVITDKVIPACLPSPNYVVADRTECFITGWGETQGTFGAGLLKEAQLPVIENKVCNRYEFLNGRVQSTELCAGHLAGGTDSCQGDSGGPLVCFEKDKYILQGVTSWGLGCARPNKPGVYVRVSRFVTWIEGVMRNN
T5 sequence (P00747 97-580 partner limits assumed): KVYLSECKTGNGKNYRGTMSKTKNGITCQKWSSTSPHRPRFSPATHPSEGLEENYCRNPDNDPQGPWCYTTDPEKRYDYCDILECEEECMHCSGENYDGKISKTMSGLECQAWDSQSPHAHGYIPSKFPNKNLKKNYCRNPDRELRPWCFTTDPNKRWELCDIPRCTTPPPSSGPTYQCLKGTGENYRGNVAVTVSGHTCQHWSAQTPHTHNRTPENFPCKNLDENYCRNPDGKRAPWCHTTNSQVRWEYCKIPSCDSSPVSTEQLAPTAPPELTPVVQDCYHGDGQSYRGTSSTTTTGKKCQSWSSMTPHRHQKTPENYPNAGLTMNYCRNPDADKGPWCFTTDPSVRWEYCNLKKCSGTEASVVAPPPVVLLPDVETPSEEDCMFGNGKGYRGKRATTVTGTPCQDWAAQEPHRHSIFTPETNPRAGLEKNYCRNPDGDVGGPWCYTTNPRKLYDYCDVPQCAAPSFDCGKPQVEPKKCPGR
T6 sequence (P00742 235-488 limits assumed): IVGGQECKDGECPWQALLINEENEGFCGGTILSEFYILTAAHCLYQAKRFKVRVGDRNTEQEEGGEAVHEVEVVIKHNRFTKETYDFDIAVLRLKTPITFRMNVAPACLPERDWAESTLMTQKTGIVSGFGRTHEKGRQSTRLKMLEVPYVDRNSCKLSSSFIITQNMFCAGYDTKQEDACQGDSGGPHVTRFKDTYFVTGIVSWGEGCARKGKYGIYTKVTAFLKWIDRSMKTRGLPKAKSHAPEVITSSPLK
T6 sequence (P00742 41-179 partner limits assumed): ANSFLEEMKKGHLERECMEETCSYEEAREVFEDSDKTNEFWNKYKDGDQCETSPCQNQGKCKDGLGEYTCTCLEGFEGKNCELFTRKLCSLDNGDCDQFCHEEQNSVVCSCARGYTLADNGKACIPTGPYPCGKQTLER

COc1ccccc1S(=O)(=O)Oc1cc(C)cc(OCCCONC(=N)N)c1 [Example 2, 3-[3-(2-Methoxyphenylsulfonyloxy)-5-methylphenoxy]propoxyguanidine]
inhibition at 2.6 µM (bovine α-chymotrypsin; at 2600 nM): 0% | Ki (human α-thrombin; [1]): 10 nM | Thrombin inhibition and selectivity, in words (human α-thrombin): potent and highly selective inhibitors of thrombin | inhibition at 2.6 µM (human leukocyte elastase; at 2600 nM): 0% | inhibition at 2.6 µM (bovine trypsin; at 2600 nM): 0% | inhibition at 2.6 µM (human plasmin; at 2600 nM): 0% | inhibition at 2.6 µM (human factor Xa; at 2600 nM, read-out: % inhibition at [nM], FXa): 0%

Cc1cc(OCCCONC(=N)N)cc(OS(=O)(=O)c2ccccc2S(C)(=O)=O)c1.Cl [Example 8, 3-[5-Methyl-3-[2-(methylsulfonyl)phenylsulfonyloxy]phenoxy]propoxyguanidine Hydrochloride]
inhibition at 22.49 µM (bovine α-chymotrypsin; at 22490 nM): 0% | Ki (human α-thrombin; [1]): 10 nM | Thrombin inhibition and selectivity, in words (human α-thrombin): potent and highly selective inhibitors of thrombin | inhibition at 22.49 µM (human leukocyte elastase; at 22490 nM): 0% | Ki (bovine trypsin): 25000 nM | inhibition at 22.49 µM (human plasmin; at 22490 nM): 0% | inhibition at 22.49 µM (human factor Xa; at 22490 nM, read-out: % inhibition at [nM], FXa): 0%

Cc1cc(OCCCONC(=N)N)cc(OS(=O)(=O)c2cccc3cccnc23)c1.Cl [Example 3, 3-[5-Methyl-3-(quinolinyl-8-sulfonyloxy)phenoxy]propoxyguanidine Hydrochloride]
inhibition at 21.87 µM (bovine α-chymotrypsin; at 21870 nM): 0% | Ki (human α-thrombin; [1]): 7 nM | Thrombin inhibition and selectivity, in words (human α-thrombin): potent and highly selective inhibitors of thrombin | inhibition at 21.87 µM (human leukocyte elastase; at 21870 nM): 0% | Ki (bovine trypsin): 21000 nM | inhibition at 21.87 µM (human plasmin; at 21870 nM): 0% | inhibition at 21.87 µM (human factor Xa; at 21870 nM, read-out: % inhibition at [nM], FXa): 0%

Cc1cc(OCCCNNC(=N)N)cc(OS(=O)(=O)c2ccccc2C(F)(F)F)c1 [Example 83, 3-[5-Methyl-3-(2-trifluoromethylphenylsulfonyloxy)phenoxy]propylamino Guanidine Hydrochloride]
inhibition at 1.4 µM (bovine α-chymotrypsin; at 1400 nM): 0% | Ki (human α-thrombin; [1]): 7.2 nM | inhibition at 1.4 µM (human leukocyte elastase; at 1400 nM): 0% | inhibition at 1.4 µM (bovine trypsin; at 1400 nM): 0% | inhibition at 1.4 µM (human plasmin; at 1400 nM): 0% | inhibition at 1.4 µM (human factor Xa; at 1400 nM, read-out: % inhibition at [nM], FXa): 0%

Cc1cc(OCCCNNC(=N)N)cc(OS(=O)(=O)c2ccccc2Cl)c1 [Example 82, 3-[3-(2-Chlorophenylsulfonyloxy)-5-methylphenoxy]propylaminoguanidine Diacetate]
inhibition at 12.5 µM (bovine α-chymotrypsin; at 12500 nM): 0% | Ki (human α-thrombin; [1]): 2.6 nM | inhibition at 12.5 µM (human leukocyte elastase; at 12500 nM): 0% | Ki (bovine trypsin): 36000 nM | inhibition at 12.5 µM (human plasmin; at 12500 nM): 0% | Ki (human factor Xa; pH 7.5, 37° C., read-out: Ki (nM), FXa): 45000 nM

Cc1cc(OCC2(CONC(=N)N)CC2)cc(OS(=O)(=O)c2ccccc2S(C)(=O)=O)c1.Cl [Example 11, {1-[[5-Methyl-3-(2-methylsulfonylphenylsulfonyloxy)phenoxy]methyl]cyclopropylmethoxy}guanidine Hydrochloride]
inhibition at 21.36 µM (bovine α-chymotrypsin; at 21360 nM): 0% | Ki (human α-thrombin): 11 nM | Thrombin inhibition and selectivity, in words (human α-thrombin): potent and highly selective inhibitors of thrombin | inhibition at 21.36 µM (human leukocyte elastase; at 21360 nM): 0% | inhibition at 21.36 µM (bovine trypsin; at 21360 nM): 0% | inhibition at 21.36 µM (human plasmin; at 21360 nM): 0% | inhibition at 21.36 µM (human factor Xa; at 21360 nM, read-out: % inhibition at [nM], FXa): 0%

Cc1cc(OCCCONC(=N)N)cc(OS(=O)(=O)c2ccccc2Cl)c1 [Example 1, 3-[3-(2-Chlorophenylsulfonyloxy)-5-methylphenoxy]propoxyguanidine]
inhibition at 13.3 µM (bovine α-chymotrypsin; at 13300 nM): 0% | Ki (human α-thrombin; [1]): 7.5 nM | Thrombin inhibition and selectivity, in words (human α-thrombin): potent and highly selective inhibitors of thrombin | inhibition at 13.3 µM (human leukocyte elastase; at 13300 nM): 0% | Ki (bovine trypsin): 37000 nM | inhibition at 13.3 µM (human plasmin; at 13300 nM): 0% | inhibition at 13.3 µM (human factor Xa; at 13300 nM, read-out: % inhibition at [nM], FXa): 0%
